Data: ChEMBL document CHEMBL5154935, “Design, Synthesis, and Biological Evaluation of Novel Evodiamine Derivatives as Potential Antihepatocellular Carcinoma Agents” (J Med Chem, 2022)
Active and inactive are the calls of the source. No cut-off for these calls is given here.

Legend:
[1] = Induction of apoptosis in rat HSC-T6 cells assessed as late apoptotic cells at 40 nM pretreated with TGFbeta-1 for 1 day followed by compound addition and measured after 24 hrs by flow cytometry (reference value: 1.76 %); assay type: functional
SK-HEP1 [2] = test: Induction of apoptosis in human SK-Hep1 cells assessed as viable cells at 40 nM incubated for 24 hrs by annexin V-FITC/PI staining flow cytometry (reference value: 97.8 %); assay type: functional; conditions: read-out: Activity
Huh-7 [3] = test: Induction of ROS generation in human Huh-7 cells incubated for 24 hrs by DCFH2-DA probe based flow cytometry; assay type: functional, cell-based; conditions: dose 10-80 nM, DDE = dose-dependent effect
Huh-7 [4] = test: Antiproliferative activity against human Huh-7 cells assessed as inhibition of cell viability by MTT assay; assay type: functional, cell-based; conditions: time 24-72 hrs, TDE = time-dependent effect
Huh-7 [5] = test: Induction of apoptosis in human Huh-7 cells assessed as viable cells at 80 nM incubated for 24 hrs by annexin V-FITC/PI staining flow cytometry (reference value: 97.3 %); assay type: functional; conditions: read-out: Activity
Huh-7 [6] = test: Induction of cell cycle arrest in human Huh-7 cells assessed as accumulation at G1 phase at 40 nM treated for 24 hrs by PI staining based flow cytometry (reference value: 60.77 %); assay type: functional
[7] = Induction of apoptosis in rat HSC-T6 cells assessed as early apoptotic cells at 10 nM pretreated with TGFbeta-1 for 1 day followed by compound addition and measured after 24 hrs by flow cytometry (reference value: 0.17 %); assay type: functional
[8] = Induction of apoptosis in rat HSC-T6 cells assessed as necrotic cells at 80 nM pretreated with TGFbeta-1 for 1 day followed by compound addition and measured after 24 hrs by flow cytometry (reference value: 0.56 %); assay type: functional
Huh-7 [9] = test: Inhibition of cell migration in human Huh-7 cells incubated for 24 hrs by scratch wound healing assay; assay type: functional, cell-based; conditions: dose 3-18 nM, DDE = dose-dependent effect
SK-HEP1 [10] = test: Induction of apoptosis in human SK-Hep1 cells assessed as necrotic cells at 10 nM incubated for 24 hrs by annexin V-FITC/PI staining flow cytometry (reference value: 0.73 %); assay type: functional
Huh-7 [11] = test: Induction of cell cycle arrest in human Huh-7 cells assessed as accumulation at S phase at 40 nM treated for 24 hrs by PI staining based flow cytometry (reference value: 23.33 %); assay type: functional
Huh-7 [12] = test: Induction of apoptosis in human Huh-7 cells assessed as early apoptotic cells at 40 nM incubated for 24 hrs by annexin V-FITC/PI staining flow cytometry (reference value: 0.33 %); assay type: functional
Huh-7 [13] = test: Induction of apoptosis in human Huh-7 cells assessed as viable cells at 10 nM incubated for 24 hrs by annexin V-FITC/PI staining flow cytometry (reference value: 97.3 %); assay type: functional; conditions: read-out: Activity
SK-HEP1 [14] = test: Induction of cell cycle arrest in human SK-Hep1 cells assessed as accumulation at G1 phase at 10 nM treated for 24 hrs by PI staining based flow cytometry (reference value: 58.47 %); assay type: functional
Huh-7 [15] = test: Induction of mitochondrial membrane potential changes in human Huh-7 cells assessed as decrease in TMRE positive cells at 80 nM incubated for 24 hrs by TMRE staining based flow cytometry; assay type: functional, cell-based
SK-HEP1 [16] = test: Induction of apoptosis in human SK-Hep1 cells assessed as chromatin agglutination incubated for 24 hrs by Giemsa staining based microscopy; assay type: functional, cell-based; conditions: dose 12-60 nM, DDE = dose-dependent effect
Huh-7 [17] = test: Inhibition of cell migration in human Huh-7 cells at 3 to 18 nM incubated for 24 hrs by crystal violet staining based transwell assay; assay type: functional; conditions: dose 3-18 nM
SK-HEP1 [18] = test: Inhibition of cell invasion in human SK-HEP1 cells at 3 to 18 nM incubated for 24 hrs by matrigel based assay; assay type: functional; conditions: dose 3-18 nM
HCC = test: Inhibition of clonogenicity in human HCC cells assessed as decrease in number of colonies at 3 to 18 nM incubated for 1 to 2 weeks by optical microscopy analysis; assay type: functional, cell-based; conditions: dose 3-18 nM, time 1-2 weeks
Huh-7 [19] = test: Antiproliferative activity against human Huh-7 cells assessed as inhibition of cell viability treated for 24 to 72 hrs by MTT assay; assay type: functional, cell-based; conditions: time 24-72 hrs, DDE = dose-dependent effect
SK-HEP1 [20] = test: Induction of apoptosis in human SK-Hep1 cells assessed as late apoptotic cells at 10 nM incubated for 24 hrs by annexin V-FITC/PI staining flow cytometry (reference value: 1.13 %); assay type: functional
[21] = Antiproliferative activity against human L02 cells treated for 72 hrs by MTT assay; assay type: toxicity, cell-based
Huh-7 [22] = test: Induction of cell cycle arrest in human Huh-7 cells assessed as accumulation at G2 phase at 80 nM treated for 24 hrs by PI staining based flow cytometry (reference value: 15.90 %); assay type: functional
SK-HEP1 [23] = test: Induction of mitochondrial membrane potential changes in human SK-Hep1 cells assessed as decrease in TMRE positive cells incubated for 24 hrs by TMRE staining based flow cytometry; assay type: functional, cell-based; conditions: dose 10-80 nM, DDE = dose-dependent effect
SK-HEP1 [24] = test: Induction of cell cycle arrest in human SK-Hep1 cells assessed as accumulation at S phase at 80 nM treated for 24 hrs by PI staining based flow cytometry (reference value: 24.98 %); assay type: functional
Huh-7 [25] = test: Induction of cell cycle arrest in human Huh-7 cells assessed as accumulation at S phase at 10 nM treated for 24 hrs by PI staining based flow cytometry (reference value: 23.33 %); assay type: functional
[26] = Induction of apoptosis in rat HSC-T6 cells assessed as necrotic cells at 40 nM pretreated with TGFbeta-1 for 1 day followed by compound addition and measured after 24 hrs by flow cytometry (reference value: 0.56 %); assay type: functional
HCCLM9 = test: Antiproliferative activity against human HCCLM9 cells treated for 72 hrs by MTT assay; assay type: functional, cell-based; conditions: HCCLM9, 72 h
Huh-7 [27] = test: Induction of apoptosis in human Huh-7 cells assessed as early apoptotic cells at 80 nM incubated for 24 hrs by annexin V-FITC/PI staining flow cytometry (reference value: 0.33 %); assay type: functional
SK-HEP1 [28] = test: Induction of apoptosis in human SK-Hep1 cells assessed as late apoptotic cells at 80 nM incubated for 24 hrs by annexin V-FITC/PI staining flow cytometry (reference value: 1.13 %); assay type: functional
Huh-7 [29] = test: Induction of apoptosis in human Huh-7 cells assessed as early apoptotic cells at 10 nM incubated for 24 hrs by annexin V-FITC/PI staining flow cytometry (reference value: 0.33 %); assay type: functional
SK-HEP1 [30] = test: Induction of apoptosis in human SK-Hep1 cells assessed as necrotic cells at 80 nM incubated for 24 hrs by annexin V-FITC/PI staining flow cytometry (reference value: 0.73 %); assay type: functional
Huh-7 [31] = test: Induction of cell cycle arrest in human Huh-7 cells assessed as accumulation at G2 phase at 40 nM treated for 24 hrs by PI staining based flow cytometry (reference value: 15.90 %); assay type: functional
[32] = Induction of apoptosis in rat HSC-T6 cells assessed as late apoptotic cells at 80 nM pretreated with TGFbeta-1 for 1 day followed by compound addition and measured after 24 hrs by flow cytometry (reference value: 1.76 %); assay type: functional
[33] = Induction of apoptosis in rat HSC-T6 cells assessed as viable cells at 10 nM pretreated with TGFbeta-1 for 1 day followed by compound addition and measured after 24 hrs by flow cytometry (reference value: 97.5 %); assay type: functional; conditions: read-out: Activity

Row | Structure (SMILES) | Activity [1] [%] | viability at 0.04 µM (SK-HEP1 [2]) [%] | Activity (Huh-7 [3]) | Activity (Huh-7 [4]) | viability at 0.08 µM (Huh-7 [5]) [%] | Activity (Huh-7 [6]) [%] | Activity [7] [%] | Activity [8] [%] | inhibition (Huh-7 [9]) | Activity (SK-HEP1 [10]) [%] | Activity (Huh-7 [11]) [%] | Activity (Huh-7 [12]) [%] | viability at 0.01 µM (Huh-7 [13]) [%] | Activity (SK-HEP1 [14]) [%] | Activity (Huh-7 [15]) | Activity (SK-HEP1 [16]) | inhibition (Huh-7 [17]) | inhibition (SK-HEP1 [18]) | inhibition (HCC) | Activity (Huh-7 [19]) | also measured
1 | CC(=O)Oc1ccc2[nH]c3c(c2c1)CCN1C(=O)c2cc(F)cc(F)c2N(c2cccc(F)c2)C31 (stereo not given) | 12.8 | 75.9 | Dde | Tde | 59.7 | 28.25 | 0.52 | 4.44 | Dde | 0.58 | 21.48 | 1.37 | 93.8 | 62.52 | Active | Dde | Active | Active | Active | Dde | Activity (SK-HEP1 [20]): 7.45%; IC50 at 72 h [21]: 950 nM; Activity (Huh-7 [22]): 74.38%; Activity (SK-HEP1 [23]): Dde; Activity (SK-HEP1 [24]): 3.88%; Activity (Huh-7 [25]): 34.56%; Activity [26]: 1.29%; IC50 (HCCLM9): 100 nM; Activity (Huh-7 [27]): 1.1%; Activity (SK-HEP1 [28]): 19.5%; Activity (Huh-7 [29]): 0.63%; Activity (SK-HEP1 [30]): 2.63%; Activity (Huh-7 [31]): 50.27%; Activity [32]: 53%; viability at 0.01 µM [33]: 89.9%
2 | O=C1c2cc(F)cc(F)c2N(c2cccc(F)c2)C2c3[nH]c4ccc(O)cc4c3CCN12 (stereo not given) | 10.4 | 74.7 | Dde | Tde | 58.4 | 15.01 | 0.084 | 3.62 | Dde | 2.39 | 21.24 | 2.51 | 93.1 | 54.93 | Active | Dde | Active | Active | Active | Dde | Activity (SK-HEP1 [20]): 3.83%; IC50 at 72 h [21]: 780 nM; Activity (Huh-7 [22]): 78.5%; Activity (SK-HEP1 [23]): Dde; Activity (SK-HEP1 [24]): 4.5%; Activity (Huh-7 [25]): 26.7%; Activity [26]: 1.11%; IC50 (HCCLM9): 110 nM; Activity (Huh-7 [27]): 1.71%; Activity (SK-HEP1 [28]): 15.4%; Activity (Huh-7 [29]): 0.73%; Activity (SK-HEP1 [30]): 2.39%; Activity (Huh-7 [31]): 63.75%; Activity [32]: 41.8%; viability at 0.01 µM [33]: 94%
